Measured values reported in patent publication US8575135B2 (Gilead Sciences, Inc., priority 2011, dated 2013).
Read-outs that look alike come from different tables or passages of the source.

What was measured:
Assay in all cases: microbe, parasite or virus in culture
Details in all cases: Hepatitis C virus
[1] = tested on: stable HCV 1a RLuc replicon cells (genotype 1a H77 replicon); type: cell-based
[2] = tested on: stable HCV 2a JFH-1 Rluc replicon cells (L31 present in NS5A); type: cell-based
[3] = tested on: NS5A chimeric genotype 1b Con1 replicon with genotype 3a S52 strain NS5A gene; type: cell-based, HCV
Summary of the method: (§1)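 Genotype 3a (S52) and 4a (ED43) NS5A chimeras use 1b Con1 Pi-RLuc replicons, transfected transiently; 2b MD2b-1 NS5A chimera (M31) uses 2a JFH-1 RLuc-Neo replicon, transient or stable.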

[4] = tested on: NS5A chimeric genotype 2a JFH-1 replicon with genotype 2a J6 strain NS5A gene (M31 present); type: cell-based, HCV
[5] = tested on: NS5A chimeric genotype 2a JFH-1 replicon with genotype 2b MD2b-1 strain NS5A gene (M31 present); type: cell-based, HCV
Summary of the method: as §1

[6] = tested on: NS5A chimeric genotype 1b Con1 replicon with genotype 4a ED43 strain NS5A gene; type: cell-based, HCV
[7] = tested on: 1a Pi-Rluc replicon with Q30R in genotype 1a NS5A; type: cell-based, HCV
Summary of the method: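 Q30R introduced by site-directed mutagenesis into genotype 1a Pi-RLuc replicon; RNA transiently transfected into Huh-7-derived cured-51 cells.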

Structure (SMILES) | EC50 ([1]; read-out: 1a) | EC50 ([1]; read-out: 1a (nM)) | EC50 ([2]; read-out: 2a JFH) | EC50 ([2]; read-out: 2a JFH (nM)) | EC50 ([3]; read-out: 3a) | EC50 ([3]; read-out: 3a (nM)) | EC50 ([4]; read-out: 2a J6) | EC50 ([4]; read-out: 2a J6 (s) (nM)) | EC50 ([4]; read-out: 2a Jb (t) (nM)) | EC50 ([5]; read-out: 2b) | EC50 ([5]; read-out: 2b (s) (nM)) | EC50 ([5]; read-out: 2b (t) (nM)) | EC50 ([6]; read-out: 4a) | EC50 ([6]; read-out: 4a (s) (nM)) | EC50 ([6]; read-out: 4a (t) (nM)) | EC50 ([7]; read-out: 1a Q30R) | EC50 ([7]; read-out: 1a Q30R (nM))
COC[C@H]1C[C@@H](c2ncc(-c3ccc4c(c3)COc3cc5c(ccc6nc([C@@H]7C[C@H](COC)CN7C(=O)[C@@H](NC(=O)OC)C(C)C)[nH]c65)cc3-4)[nH]2)N(C(=O)[C@@H](NC(=O)OC)C(C)C)C1 [Example OI, Methyl {(2S)-1-[(2S,4S)-2-(5-{2-[(2S,4S)-1-{(2S)-2-[(methoxycarbonyl)amino]-3-methylbutanoyl}-4-(methoxymethyl)pyrrolidin-2-yl]-1,11-dihydroisochromeno[4′,3′:6,7]naphtho[1,2-d]imidazol-9-yl}-1H-imidazol-2-yl)-4-(methoxymethyl)pyrrolidin-1-yl]-3-methyl-1-oxobutan-2-yl}carbamate] | < 1 nM | 0.024 nM | < 1 nM | 0.01 nM | < 1 nM | 0.206 nM | < 1 nM | 0.326 nM | 0.061 nM | < 1 nM | 0.629 nM | 0.178 nM | < 1 nM | 0.007 nM | 0.036 nM | < 1 nM | 0.086 nM
COC[C@H]1C[C@@H](c2nc3ccc4cc5c(cc4c3[nH]2)OCc2cc(-c3cnc([C@@H]4CCCN4C(=O)[C@@H](NC(=O)OC)C(C)C)[nH]3)ccc2-5)N(C(=O)[C@H](N)c2ccccc2)C1 [Example OO, Methyl {(2S)-1-[(2S)-2-(5-{2-[(2S,4S)-1-[(2R)-2-amino-2-phenylacetyl]-4-(methoxymethyl)pyrrolidin-2-yl]-1,11-dihydroisochromeno[4′,3′:6,7]naphtho[1,2-d]imidazol-9-yl}-1H-imidazol-2-yl)pyrrolidin-1-yl]-3-methyl-1-oxobutan-2-yl}carbamate] | < 1 nM | 0.072 nM | < 1 nM | 0.015 nM | < 1 nM | 0.028 nM | < 1 nM | 0.259 nM | 0.028 nM | < 1 nM | 0.076 nM | 0.02 nM | < 1 nM | 0.018 nM | 0.086 nM | < 1 nM | 0.139 nM
CCO[C@H]1C[C@@H](c2nc3ccc4cc5c(cc4c3[nH]2)OCc2cc(-c3cnc([C@@H]4CCCN4C(=O)[C@@H](NC(=O)OC)C(C)C)[nH]3)ccc2-5)N(C(=O)[C@@H](NC(=O)OC)C(C)C)C1 [Example OQ, Methyl {(2S)-1-[(2S)-2-(5-{2-[(2S,4S)-4-ethoxy-1-{(2S)-2-[(methoxycarbonyl)amino]-3-methylbutanoyl}pyrrolidin-2-yl]-1,11-dihydroisochromeno[4′,3′:6,7]naphtho[1,2-d]imidazol-9-yl}-1H-imidazol-2-yl)pyrrolidin-1-yl]-3-methyl-1-oxobutan-2-yl}carbamate] | < 1 nM | 0.015 nM | < 1 nM | 0.007 nM | < 1 nM | 0.048 nM | < 1 nM | 1.49 nM | 0.378 nM | < 1 nM | 0.982 nM | 0.265 nM | < 1 nM | 0.016 nM | 0.02 nM | < 1 nM | 0.102 nM
CCO[C@H]1C[C@@H](c2nc3ccc4cc5c(cc4c3[nH]2)OCc2cc(-c3cnc([C@@H]4CCCN4C(=O)[C@H](NC(=O)OC)c4ccccc4)[nH]3)ccc2-5)N(C(=O)[C@@H](NC(=O)OC)C(C)C)C1 [Example OR, Methyl {(1R)-2-[(2S)-2-(5-{2-[(2S,4S)-4-ethoxy-1-{(2S)-2-[(methoxycarbonyl)amino]-3-methylbutanoyl}pyrrolidin-2-yl]-1,11-dihydroisochromeno[4′,3′:6,7]naphtho[1,2-d]imidazol-9-yl}-1H-imidazol-2-yl)pyrrolidin-1-yl]-2-oxo-1-phenylethyl}carbamate] | < 1 nM | 0.03 nM | < 1 nM | 0.011 nM | < 1 nM | 0.031 nM | < 1 nM | 0.16 nM | 0.068 nM | < 1 nM | 0.109 nM | 0.037 nM | < 1 nM | 0.006 nM | 0.036 nM | < 1 nM | 0.059 nM
COC(=O)N[C@H](C(=O)N1C[C@@H](C)C[C@H]1c1nc2ccc3cc4c(cc3c2[nH]1)OCc1cc(-c2cnc([C@@H]3C[C@H](C)CN3C(=O)[C@H](NC(=O)OC)c3ccccc3)[nH]2)ccc1-4)C(C)C [Example PG, methyl {(1R)-2-[(2S,4S)-2-(5-{2-[(2S,4S)-1-{(2S)-2-[(methoxycarbonyl)amino]-3-methylbutanoyl}-4-methylpyrrolidin-2-yl]-1,11-dihydroisochromeno[4′,3′:6,7]naphtho[1,2-d]imidazol-9-yl}-1H-imidazol-2-yl)-4-methylpyrrolidin-1-yl]-2-oxo-1-phenylethyl}carbamate] | < 1 nM | 0.033 nM | < 1 nM | 0.018 nM | < 1 nM | 0.05 nM | < 1 nM | 0.335 nM | 0.045 nM | < 1 nM | 0.119 nM | 0.027 nM | < 1 nM | 0.008 nM | 0.063 nM | < 1 nM | 0.043 nM
COC(=O)N[C@H](C(=O)N1[C@H](c2nc3ccc4cc5c(cc4c3[nH]2)OCc2cc(-c3cnc(C4CCCN4C(=O)[C@H](NC(=O)OC)c4ccccc4)[nH]3)ccc2-5)C[C@@H]2CCC[C@@H]21)C(C)C (stereo partly drawn) [Example PN, methyl {(1R)-2-[2-(5-{2-[(2S,3aS,6aS)-1-{(2S)-2-[(methoxycarbonyl)amino]-3-methylbutanoyl}octahydrocyclopenta[b]pyrrol-2-yl]-1,11-dihydroisochromeno[4′,3′:6,7]naphtho[1,2-d]imidazol-9-yl}-1H-imidazol-2-yl)pyrrolidin-1-yl]-2-oxo-1-phenylethyl}carbamate] | < 1 nM | 0.015 nM | < 1 nM | 0.009 nM | < 1 nM | 0.016 nM | < 1 nM | 0.277 nM | 0.027 nM | < 1 nM | 0.035 nM | 0.014 nM | < 1 nM | 0.02 nM | 0.014 nM | < 1 nM | 0.03 nM
COC(=O)N[C@H](C(=O)N1[C@H](c2nc3ccc4cc5c(cc4c3[nH]2)OCc2cc(-c3cnc(C4CCCN4C(=O)[C@@H](NC(=O)OC)C4CCOCC4)[nH]3)ccc2-5)C[C@@H]2CCC[C@@H]21)C(C)C (stereo partly drawn) [Example PP, methyl [(1S)-2-[2-(5-{2-[(2S,3aS,6aS)-1-{(2S)-2-[(methoxycarbonyl)amino]-3-methylbutanoyl}octahydrocyclopenta[b]pyrrol-2-yl]-1,11-dihydroisochromeno[4′,3′:6,7]naphtho[1,2-d]imidazol-9-yl}-1H-imidazol-2-yl)pyrrolidin-1-yl]-2-oxo-1-(tetrahydro-2H-pyran-4-yl)ethyl]carbamate] | < 1 nM | 0.014 nM | < 1 nM | 0.011 nM | < 1 nM | 0.019 nM | < 1 nM | 0.403 nM | 0.061 nM | < 1 nM | 0.11 nM | 0.038 nM | < 1 nM | 0.011 nM | 0.027 nM | < 1 nM | 0.043 nM
COC[C@H]1C[C@@H](c2ncc(-c3ccc4c(c3)COc3cc5c(ccc6nc([C@@H]7CC[C@H](C)N7C(=O)[C@@H](NC(=O)OC)C(C)C)[nH]c65)cc3-4)[nH]2)N(C(=O)[C@@H](NC(=O)OC)C(C)C)C1 [Example PZ, Methyl {(2S)-1-[(2S,5S)-2-(9-{2-[(2S,4S)-1-{(2S)-2-[(methoxycarbonyl)amino]-3-methylbutanoyl}-4-(methoxymethyl)pyrrolidin-2-yl]-1H-imidazol-5-yl}-1,11-dihydroisochromeno[4′,3′:6,7]naphtho[1,2-d]imidazol-2-yl)-5-methylpyrrolidin-1-yl]-3-methyl-1-oxobutan-2-yl}carbamate] | < 1 nM | 0.009 nM | < 1 nM | 0.005 nM | < 1 nM |  | < 1 nM | 1.71 nM | 0.175 nM | < 1 nM | 0.386 nM | 0.071 nM |  | 0.025 nM |  | < 1 nM | 0.057 nM
